Patent publication US6890720B1, “Antigens derived from filaggrin and their use for diagnosing rheumatoid polyarthritis” (Biomerieux, priority 1996, dated 2005)
Square brackets hold non-standard residues; d marks the D form. Cit = NC(=O)NCCC[C@H](N)C(=O)O

Tests used:
monoclonal antibody AHF4 = assay: Dot-blot of peptides and fil-gst before and after PAD, monoclonal antibody AHF4; assay type: binding; settings: 0.5 μg antigen per deposit, AHF4 0.2 μg/ml
Description: (§1) These 2 peptides, as well as fil-gst, were citrullinated by the action of PAD, for 30 minutes at 50° C., in the same reaction medium as that indicated in Example 2. The specific conditions for each peptide, and for the fil-gst are the following: • peptide S-47-S (SEQ ID NO:3): 4 mU/μmol arginine • peptide S-35-R (SEQ ID NO:4): 2.7 mU/μmol arginine • fil-gst as indicated in Example 2.
(§2) The reactivity of each peptide and that of fil-gst, before and after action of the enzyme, towards the monoclonal antibody AHF4, and the serum from a patient suffering from RA, is compared by dot-blot.
(§3) The operating conditions are the following: • 0.5 μg by deposition of each antigen (peptides, fil-gst, acido-neutral variants of filaggrin (AVF)) • nitrocellulose treatment 45 minutes at 80° C., before immunodetection • RA serum used at the dilution of 1/2000; monoclonal antibody AHF4 used at a concentration of 0.2 μg/ml

[1] = tested on: serum from a patient suffering from RA; assay: Dot-blot of peptides and fil-gst before and after PAD, serum from an RA patient; assay type: binding, human; settings: serum 1/2000
Description: as §1, §2, §3

[2] = tested on: anti-filaggrin autoantibodies (AFAs); assay: ELISA of citrullinated and noncitrullinated peptides coated on microtiter plates; assay type: binding, human
Description: The reactivity of each citrullinated and noncitrullinated peptide was tested respectively in relation to a normal serum, to two sera from RA patients, to anti-filaggrin antibodies (AFAs) purified from a pool of 45 sera from RA patients and to anti-filaggrin antibodies purified from 12 sera from RA patients.
The wells of NUNC MAXISORP microtiter plates were respectively coated with the aid of the noncitrullinated and citrullinated peptides E-12-D (SEQ ID NO:6) and E-12-H (SEQ ID NO:5), diluted to a concentration of 5 μg/ml in a PBS buffer (pH: 7.4) and incubated overnight at 4° C. (final volume: […]). The wells were saturated for 30 minutes at 37° C. in PBS-Tween 20, 0.05%, 2.5% gelatin, 200 μl/well. The negative control serum (normal serum) was diluted 1/120. The antifilaggrin antibodies were diluted in PBS-Tween 20, 0.05%-0.5% gelatin (PBS TG) such that the final anti-filaggrin autoantibody concentrations are those indicated in the accompanying Table I. The negative control serum, the RA sera and the anti-filaggrin antibodies were added (final volume: 100 μl/well) and incubated for 1 hour at 37° C. and overnight at 4° C. Peroxidase-labeled goat antibodies anti-gamma heavy chains of the human immunoglobulins (marketed by the company SOUTHERN BIOTECHNOLOGIES) were added to each well (dilution in PBSTG: 1/2000, final volume: 100 μl/well) and incubated for 1 hour at 37° C.
The results presented in the accompanying Table I are given as a ratio of OD at 492 nm: citrullinated peptide signal/noncitrullinated peptide signal.

[3] = tested on: AFAs present in sera from patients suffering from RA; assay: Immunoblot of fil-gst deiminated in vitro by PAD, revealed with a pool of 5 RA sera; assay type: binding, human; settings: for recognition by the sera from patients suffering from RA: pool of 5 RA sera 1/2000
Description: (§4) The mixture of the 9 fragments is subjected to deimination in vitro by peptidylarginine deiminase.
(§5) A rabbit muscle peptidylarginine deiminase preparation (681 U/ml) marketed by TAKARA BIOMED EUROPE is used according to the protocol recommended by the manufacturer.
(§6) The operating conditions are the following: • reaction medium: 0.1 M Tris-HCl, 10 mM CaCl2, 5 mM DTT, pH 7.4; • enzyme/substrate ratio: 140 mU/μmol of filaggrin containing 10% arginine or 4 mU/μmol of arginine; • incubation: between 0 and 60 min at 50° C.; • termination of the reaction: heating 3 min in LAEMMLI buffer.
(§7) 1 μl of each sample is deposited on an electrophoresis gel (PHAST®-SDS gel 12.5% PHARMACIA), and the electrophoresis is carried out with the PHAST-SYSTEM® apparatus (PHARMACIA), under the conditions recommended by the manufacturer. […] Dermatol. 105, 432, (1995)] at the concentration of 0.2 μg/ml (FIG. 3b).
The results are illustrated by FIG. 3 • Lane 1: BSA (1 hour, 50° C.) • Lane 2: BSA+PAD (1 hour, 50° C.) • Lane 3: fil-gst (1 hour, […]) • Lane 5: fil-gst+PAD (15 minutes, 50° C.) • Lane 6: fil-gst+PAD (30 minutes, 50° C.) • Lane 7: fil-gst+PAD (1 hour, 50° C.) • Lane 8: fil-gst+PAD+inhibitor (1 hour, 50° C.)

[4] = tested on: anti-filaggrin monoclonal antibody AHF2; assay: Immunoblot of fil-gst deiminated in vitro by PAD, revealed with monoclonal antibody AHF2; assay type: binding; settings: AHF2 0.2 μg/ml
Description: as §4, §5, §6, §7
The results are illustrated by FIG. 3 • Lane 1: BSA (1 hour, 50° C.) • Lane 2: BSA+PAD (1 hour, 50° C.) • Lane 3: fil-gst (1 hour, 50° C.) • Lane 4: fil-gst+PAD (15 minutes, 50° C.) • Lane 5: fil-gst+PAD (15 minutes, 50° C.) • Lane 6: fil-gst+PAD (30 minutes, 50° C.) • Lane 7: fil-gst+PAD (1 hour, 50° C.) • Lane 8: fil-gst+PAD+inhibitor (1 hour, 50° C.)

[5] = tested on: AFAs of the sera from patients suffering from RA; assay: Immunoblot of citrullinated and noncitrullinated fil-gst with individual sera and purified AFAs; assay type: binding, human; settings: citrullinated fil-gst; purified AFAs 4 μg/ml
Description: In a first series of experiments (FIG. 4a), the reactivity of noncitrullinated fil-gst (fil-gst alone, 30 minutes at 50° C.) and fil-gst citrullinated with PAD 30 minutes at 50° C. is compared with human sera composed of: • sera from normal persons: T(2) and T(3) • sera from patients suffering from RA having high AFA titers which are detected by immunotransfer on acido-neutral variants of human filaggrin, and by indirect immunofluorescence on cryosections of rat esophagus: RA(6) and RA(8); • anti-filaggrin antibodies purified from the serum from a patient suffering from RA by affinity chromatography, on a column grafted with acido-neutral isoforms of human filaggrin: AFA.
A positive control is also carried out with the monoclonal antibody AHF2.
In a second series of experiments (FIG. 4b), the reactivity of citrullinated fil-gst is confirmed with a largest series of sera: • 4 control sera: T(4) • 4 sera from patients suffering from RA not having AFAs detected by immunotransfer or by indirect immunofluorescence: RA(4) • 9 sera from patients suffering from RA with high AFA titers (three of them (*) were also tested in the first series of experiments): RA(9) • anti-filaggrin antibodies purified by affinity chromatography, on a column grafted with the acido-neutral isoforms of filaggrin, from a pool of sera from 40 patients suffering from RA: AFA • the monoclonal antibodies AHF (1-7). […]

[6] = citrullinated (PAD 30 minutes at 50° C.)
[7] = after citrullination (PAD 30 minutes at 50° C.), 0.5 μg antigen per deposit
[8] = not citrullinated, 0.5 μg antigen per deposit
[9] = Control serum (normal serum) diluted 1/120
[10] = Pool of AFAs (purified from 45 RA sera), 5 μg/ml
[11] = Pool of AFAs (purified from 45 RA sera), 10 μg/ml
[12] = Pool of AFAs (purified from 45 RA sera), 20 μg/ml

## NH2-SQDRDSQAQSEDSERRSASASRNHRGSAQEQSRDGSR-COOH (H-SQDRDSQAQSEDSERRSASASRNHRGSAQEQSRDGSR-OH; also: citrullinated, positions not given here; listed as Homo sapiens) [Peptide S-35-R, peptide of 37 amino acids, amino acids 155 to 191 of a human filaggrin unit, 7 arginine residues; tested before and after PAD]
Monoclonal antibody AHF4; [6]
  recognition by AHF4: does not recognize
Monoclonal antibody AHF4; not citrullinated
  recognition by AHF4: does not recognize
[1]; [7]
  recognition by the serum from the patient suffering from RA: not recognized
[1]; [8]
  recognition by the serum from the patient suffering from RA: not recognized

## NH2-ESSRDGSRHPRSHD-COOH (H-ESSRDGSRHPRSHD-OH; not fully specified; printed as NH2-ESSRDGSRHPRSHD-COOH) [Peptide E-12-D]
[2]; [9]
  ratio of OD at 492 nm: citrullinated peptide signal/noncitrullinated peptide signal: 1.076
[2]; [10]
  ratio of OD at 492 nm: citrullinated peptide signal/noncitrullinated peptide signal: 1.77
[2]; [11]
  ratio of OD at 492 nm: citrullinated peptide signal/noncitrullinated peptide signal: 1.63
[2]; [12]
  ratio of OD at 492 nm: citrullinated peptide signal/noncitrullinated peptide signal: 1.48
[2]; RA1 serum, AFAs 10 μg/ml
  ratio of OD at 492 nm: citrullinated peptide signal/noncitrullinated peptide signal: 1.42
[2]; RA1 serum, AFAs 20 μg/ml
  ratio of OD at 492 nm: citrullinated peptide signal/noncitrullinated peptide signal: 1.85
[2]; RA2 serum, AFAs 5 μg/ml
  ratio of OD at 492 nm: citrullinated peptide signal/noncitrullinated peptide signal: 2.42
[2]; RA2 serum, AFAs 10 μg/ml
  ratio of OD at 492 nm: citrullinated peptide signal/noncitrullinated peptide signal: 3.77
[2]; RA2 serum, AFAs 20 μg/ml
  ratio of OD at 492 nm: citrullinated peptide signal/noncitrullinated peptide signal: 5.57

## NH2-EQSADSSRHSGSGH-COOH (H-EQSADSS[Cit]HSGSGH-OH) [Peptide E-12-H]
[2]; [9]
  ratio of OD at 492 nm: citrullinated peptide signal/noncitrullinated peptide signal: 1
[2]; [10]
  ratio of OD at 492 nm: citrullinated peptide signal/noncitrullinated peptide signal: 2.45
[2]; [11]
  ratio of OD at 492 nm: citrullinated peptide signal/noncitrullinated peptide signal: 2.42
[2]; [12]
  ratio of OD at 492 nm: citrullinated peptide signal/noncitrullinated peptide signal: 1.82
[2]; RA1 serum, AFAs 10 μg/ml
  ratio of OD at 492 nm: citrullinated peptide signal/noncitrullinated peptide signal: 1.32
[2]; RA1 serum, AFAs 20 μg/ml
  ratio of OD at 492 nm: citrullinated peptide signal/noncitrullinated peptide signal: 1.20
[2]; RA2 serum, AFAs 5 μg/ml
  ratio of OD at 492 nm: citrullinated peptide signal/noncitrullinated peptide signal: 10.44
[2]; RA2 serum, AFAs 10 μg/ml
  ratio of OD at 492 nm: citrullinated peptide signal/noncitrullinated peptide signal: 11.51
[2]; RA2 serum, AFAs 20 μg/ml
  ratio of OD at 492 nm: citrullinated peptide signal/noncitrullinated peptide signal: 8.38

## AVFs: acido-neutral variants of human epidermal filaggrin [reference compound]
[1]; natural antigen as such, 0.5 μg per deposit
  recognition by the serum from the patient suffering from RA: recognizes

## NH2-STGHSGSQHSHTTTQGRSDASRGSSGSRSTSRETRDQEQSGDGSRHSGS-COOH (H-STGHSGSQHSHTTTQGRSDASRGSSGSRSTSRETRDQEQSGDGSRHSGS-OH; also: citrullinated, positions not given here; listed as Homo sapiens) [Peptide S-47-S, peptide of 49 amino acids, amino acids 71 to 119 of a human filaggrin unit, 6 arginine residues; tested before and after PAD]
Monoclonal antibody AHF4; [6]
  recognition by AHF4: recognizes
Monoclonal antibody AHF4; not citrullinated
  recognition by AHF4: recognizes
[1]; [7]
  recognition by the serum from the patient suffering from RA: recognized

B1: fil-gst: recombinant human filaggrin unit fused with glutathione S-transferase (GST), expressed in E. coli (protein)
chain: QSESAHGRTGTSTGGRQGSHHKQARDSSRHSTSQEGQDTIHGHPGSSSGGRQGSHYEQLVDRSGHSGSHHSHTTSQGRSDASHGHSGSRSASRQTRNDEQSGDGSRHSGSRHHEASSRADSSGHSQVGQGQSEGPRTSRNWGSSFSQDSDSQGHSEDSERWSGSASRNHHGSAQEQLRDGSRHPRSHQEDRAGHGHSADSSRQSGTRHTQTSSGGQAASSHEQARSSAGERHGSHHQQSADSSRHSGIGHGQASSAVRDSGHRGYSGSQASDNEGHSEDSDTQSVSAHGQAGSHQQSHQESARGRSGETSGHSGSFLYQVSTHE
modifications: left off: a dimerising Fc or GST
notes: recombinant human filaggrin unit fused with glutathione S-transferase (GST), expressed in E. coli
[3]; PAD reacted for 60 minutes at 50° C. (lane 7), sera 1/2000
  reactivity with the pool of RA sera: increase in reactivity
[3]; absence of citrullination reaction (1 h, 50° C. without PAD, lane 3)
  recognition by the sera from patients suffering from RA: not recognized
[3]; from 5 minutes of citrullination with PAD at 50° C. (lane 4)
  recognition by the sera from patients suffering from RA: detected
[4]; citrullinated
  recognition by monoclonal antibody AHF2: recognizes all the fragments
[4]; not citrullinated
  recognition by monoclonal antibody AHF2: recognizes all the fragments
Monoclonal antibody AHF4; [6]
  recognition by AHF4: recognizes
Monoclonal antibody AHF4; not citrullinated
  recognition by AHF4: recognizes
[1]; [8]
  recognition by the serum from the patient suffering from RA: does not recognize

B2: citrullinated fil-gst: fil-gst deiminated in vitro by rabbit muscle peptidylarginine deiminase (protein)
chain: B1 chain
modifications: non-natural residues; left off: a dimerising Fc or GST
notes: fil-gst deiminated in vitro by rabbit muscle peptidylarginine deiminase
[5]
  reactivity of antifilaggrin autoantibodies purified by affinity chromatography from RA sera: recognition of the fragments corresponding to lanes 1 to 5
[1]; [7]
  recognition by the serum from the patient suffering from RA: recognizes
